Experiments:
[1] = system: vascular smooth muscle cells of rats; assay: Protecting activity in vascular smooth muscle cells against H2O2 (MTT); type: cell-based, rat; settings: 10 μM compound, 30 minutes before H2O2 200 μM for 24 hours, FIG. 17
Experimental: The vascular smooth muscle cells of rats (2×10^4 cells/mL×1 mL) were quantitatively seeded in 24-well plates, and cultured in Dulbecco's modified Eagle medium (DMEM) with 10% fetal bovine serum (FBS) for 24 hours to achieve cell adhesion. After cell adhesion, the DMEM medium with 10% fetal bovine serum was replaced with a fresh DMEM medium with 0.1% fetal bovine serum to perform cell culture for 48 hours.
Next, each test compound was added in the cultures (final concentration: 0.1, 1, 10 μM). After 30 minutes, H2O2 (200 μM) was added therein to perform reaction for 24 hours in an incubator. Subsequently, in a light-proof environment, MTT (100 μL) was added into each well to perform reaction at 37° C. for 3 hours. The supernatant liquor was removed and then isopropanol (500 μL) was added, followed by shaking for 10 minutes. After standing for 10 minutes, supernatant liquor (200 μL) was transferred into 96-well plates. Finally, the absorbance value (O.D.) was monitored at 540 nm (OD540) and 630 nm (OD630). Based on the measured absorbance values (OD540-OD630), the effect of these test compounds on cell growth can be evaluated, as shown in FIG. 3.

[2] = system: lipid peroxidase, Dunkin Hartley Guinea pig liver microsomes; assay: Activity in inhibiting lipid peroxidase (malondialdehyde quantitation); type: biochemical; settings: 10 μM, 20 minutes/37° C.
Experimental: The assay was executed with reference to the method described in Biochem Biophys Res Commun. Mar. 28, 1986; 135(3): 1015-21.
• (a) Source: Dunkin Hartley Guinea pig liver microsomes • (b) Substrate: Polyunsaturated fatty acid • (c) Vehicle: 1% DMSO • (d) Pre-Incubation Time/Temp: 15 minutes/37° C. • (e) Incubation Time/Temp: 20 minutes/37° C. • (f) Incubation Buffer: 0.25 M Potassium Phosphate, pH 7.4, 0.1 mM EDTA • (g) Quantitation Method: Spectrophotometric quantitation of Malondialdehyde

[3] = Protection from peroxy radical-induced damage, Method A (β-phycoerythrin fluorescence, AAPH); type: biochemical; settings: test compound 5×10^−6 M, AAPH 25 mM, β-phycoerythrin 5 nM, pH 7.4, FIG. 9
Excerpt: In order to evaluate the effect of test compounds in scavenging hydrophilic peroxy radical, the experiment was executed with reference to the method described by Tsuchiya et al. (Methods Enzymol 1992, 213: 460-472). In the experiment, peroxides will react with fluorescent substances and thus inflect observed fluorescence intensity. Thereby, the effect of test compounds in free radical scavenging can be evaluated by measuring the variation of the fluorescence intensity after the addition of test compounds.
First, to a silicate tube was added a phosphate solution (2 ml, pH 7.4), followed by the addition of β-phycoerythrin (5 nM) to increase relative fluorescence intensity. After 5 minutes, 2,2′-azobis (2-amidinopropane)dihydrochloride (25 mM, AAPH) was added therein. Subsequently, through a fluorescent spectrometry (Shimadzu RF-5301PC, Japan), the fluorescence intensity of β-phycoerythrin was measured by excitation at 540 nm and emission at 570 nm. Then, the test compounds (5×10^−6 M) was further added therein to observe the variation of the fluorescence intensity, in which 0.1% DMSO was taken as a control group.

[4] = Free radical scavenging of 1,1-diphenyl-2-picryl-hydrazyl (DPPH); type: biochemical; settings: DPPH 100 μM, 30 min, absorbance at 517 nm, FIGS. 2-8
Experimental: After 30 min, the absorbance (O.D.) was monitored spectrophotometrically at 517 nm. The activity in inhibiting free radical DPPH results in the decrease of absorbance.

[5] = Oxygen radical absorbing capacity, Method B (fluorescenin fluorescence decay, AAPH); type: biochemical; settings: test substance 1 μM, 18.75 mM AAPH, 0.06 μM fluorescenin, 37° C., pH 7.4, FIGS. 10-16
Experimental: In order to evaluate the oxygen radical absorbing capacity of test compounds. The automated assay was carried out as described in a previous report by Gillespie and co-workers (Gillespie et al., 2007). The experiment was conducted at 37° C. under pH 7.4 condition with a blank sample in parallel. Briefly, 2, 2′-azobis (2-amidinopropane) dihydrochloride (AAPH) was used as a peroxyl generator. The final reaction mixture for each black microplat in a 96-well microplate assay contained 0.06 μM fluorescenin, 18.75 mM AAPH and appropriate test substance (1 μM) in 75 mM phosphate buffer. Test substance was directly dissolved in DMSO and diluted with 75 mM potassium phosphate buffer (pH 7.4) for analysis. The analyzer was programmed to record the fluorescence of fluorescenin every minute after the addition of AAPH. All fluorescent measurements are expressed relative to the initial reading (excitation at 485 nm and emission at 530 nm) on a FLUOstar Galaxy plate reader (Roche Diagnostic System Inc., Branchburg, N.J.). Raw data were exported from the Fluostar Galaxy software to an Excel (Microsoft, Roselle, Ill.) sheet for further calculations. All the reaction mixtures were prepared in duplicate, and at least three independent assays were performed for each sample. (Gillespie, K M et al., Nature Protocols 2007; 2: 867-870.)

[6] = PROGRESS (n=6105), individuals with cerebrovascular disease; cited from earlier work
[7] = HOPE (n=9297), patients with high cardiovascular risk; cited from earlier work

| Compound | activity in free radical scavenging of DPPH in comparison with carboxyl group-containing agent alone and thaliporphine alone [4] | activity in free radical scavenging of APPH in comparison with carboxyl group-containing agent alone and aporphine alone [5] | other results |
| --- | --- | --- | --- |
| COc1cc2c(cc1OC)-c1c(O)c(OC)cc3c1C(C2)N(CC(O)COc1ccccc1OC)CC3 (stereo not shown) [Compound 1] | – | – | inhibition of H2O2-induced damage to vascular smooth muscle cells [1]: significantly inhibited; Inhibition (%) [2]: 64%; protection of β-phycoerythin from peroxy radical AAPH-induced damage (fluorescence degradation) [3]: can protect β-phycoerythin |
| COc1cc2c(cc1OC)-c1c(O)c(OC)cc3c1C(C2)N(CC(=O)Nc1c(C)cccc1C)CC3 (stereo not shown) [Compound 2] | – | – | inhibition of H2O2-induced damage to vascular smooth muscle cells [1]: slightly inhibited; Inhibition (%) [2]: 70%; protection of β-phycoerythin from peroxy radical AAPH-induced damage (fluorescence degradation) [3]: can protect β-phycoerythin |
| CC(=O)NC(CS)C(=O)O.COc1cc2c(cc1O)CC1c3c(cc(OC)c(OC)c3-2)CCN1C (stereo not shown) [acetylcysteine salt of thaliporphine, Acetylcysteine salt of Thaliporphine] | much higher activity | much higher activity | – |
| COc1cc2c(cc1OC)-c1c(OC)c(OC)cc3c1C(C2)N(C)CC3.O=C(O)C=Cc1ccc(Cn2ccnc2)cc1 (stereo not shown) [ozagrel salt of glaucine] | – | much higher activity | – |
| CCC[C@H](N[C@@H](C)C(=O)N1[C@H](C(=O)O)C[C@@H]2CCCC[C@@H]21)C(=O)OCC [perindopril] | – | – | reduction of recurrent stroke [6]: 28% |
| CCOC(=O)[C@H](CCc1ccccc1)N[C@@H](C)C(=O)N1[C@H](C(=O)O)C[C@@H]2CCC[C@@H]21 [ramipril] | – | – | reduction of composite outcome (cardiovascular death, myocardial infarction and cerebrovascular accident) [7]: 22% |
| Atorvastatin salt of Thaliporphine | much higher activity | much higher activity | – |
| Captopril salt of Thaliporphine | much higher activity | much higher activity | – |
| Telmisartan salt of Thaliporphine | much higher activity | – | – |
| bezafibrate salt of thaliporphine | much higher activity | much higher activity | – |
| nateglinide salt of thaliporphine | much higher activity | much higher activity | – |
| salsalate salt of thaliporphine | much higher activity | much higher activity | – |
